The numbers were not newly measured in patent publication US20250221954A1, “METHODS TO TREAT, PREVENT, OR REDUCE HYPERAMMONEMIA” (priority 2024, published 2025), which cites them from elsewhere.

The conditions of series [1]: decrease in clearance with increased dose.
For series [2] the following is noted: prolonged, multiday maintenance of phenylacetate infusions.

Consider `O=C([O-])c1ccccc1.[Na+]` [benzoate, sodium benzoate], for which the elimination result in series [1] is listed as “saturable, non-linear elimination”.

In the case of `O=C([O-])Cc1ccccc1.[Na+]` [phenylacetate, sodium phenylacetate], the potential neurotoxicity result in series [2] is “somnolence, fatigue, and lightheadedness”. For the same compound, the elimination result in series [1] is “saturable, non-linear elimination”.
